Consider two compounds from patent US12280022B2, “Method of treating major depressive disorder” (Clexio Biosciences Ltd., priority 2018, dated 2025).

Data set [1] concerns animal models of depression. To be noted: without psychotomimetic side effects and abuse liability; cited from earlier work.
Data set [2] has as its system healthy male and female subjects. Description: Single dose crossover study in healthy volunteers: treatment-emergent adverse events. The data set is classed as in vivo, human. An excerpt: A total of 128 TEAEs (treatment-emergent adverse event) were reported by 15 of 16 (94%) subjects of which 79 TEAEs reported by 14 of 16 (88%) subjects were to be related to the study drug. Overall, a total of 14 of 128 TEAEs reported by 4 (25%) subjects were of moderate severity and 114 of 128 TEAEs reported by 15 (94%) subjects were of mild severity. […] The most frequently occurring adverse events (reported more than twice) were headache, dizziness, hypokinesia, feeling abnormal, fatigue, euphoric mood inappropriate affect, nausea and hyperhidrosis. Table 4 presents the frequency of the most frequently reported related TEAEs as a percentage of the subjects that experienced an adverse effect per treatment.

Data set [3] concerns human peripheral blood lymphocytes (HPBL). To be noted: definitive assay; non-activated 4- and 20-hour treatment conditions; any dose. On the procedure: The clastogenic potential of esketamine was evaluated in the in vitro mammalian chromosome aberration test using human peripheral blood lymphocytes (HPBL) in both the absence and presence of an induced metabolic activation system (the 9000 g supernatant [S9] microsomal fraction of liver homogenate from rats exposed to Aroclor-1254).
The study was conducted in 2 phases, with a preliminary toxicity test used to determine the appropriate concentrations for the definitive chromosomal aberration assay. Water was used as a negative (vehicle) control. Toxicity (defined as ≥45% reduction in MI relative to the vehicle control) was evaluated at 9 concentrations, ranging from 0.0238 to 238 μg/ml, after exposure of HPBL to esketamine for 20 hours in the absence of S9 activation, or for 4 hours, either in the presence or absence of S9 activation, followed by a 16-hour recovery period.
The definitive chromosome aberration assay evaluated HPBL cells after exposure to esketamine for 20 hours in the absence of S9 activation, or for 4 hours, either in the presence of absence of S9 activation, followed by a 16-hour recovery. Positive controls for chromosomal aberrations in non-activated and S9-activated evaluations, respectively, consisted of mitomycin C (MMC, 0.6 and 0.3 μg/mL for the 4- and 20-hour exposures, respectively) and cyclophosphamide (CP, 2.5, 5, and 7.5 μg/mL). […]

Data set [4] deals with liver of Crl:CD(SD) rats. Description: In vivo single cell gel electrophoresis (comet) assay in liver. The following applies: male and female rats; oral gavage.
The test system of data set [5] is male Sprague Dawley rats. The data set is described as follows: 7-day forced swim test. To be noted: intraperitoneal. The data set is classed as in vivo. The protocol: Groups of, 6-7 week old, male Sprague Dawley rats were administered esketamine by intraperitoneal injection and their behavioral despair assessed by a forced swim test. The animals, in cohorts of 10, were administered either a single dose of 15 mg/kg esketamine, 7 daily doses of either 7.5 or 15 mg/kg esketamine or a vehicle control, and the test performed 30 minutes after dosing. Statistical evaluation was performed using an ordinary One-Way ANOVA, t Test and an Uncorrected Fisher's LSD comparisons test.

Consider `CN[C@@]1(c2ccccc2Cl)CCCCC1=O` [(R)-ketamine, (2R)-2-(2-Chlorophenyl)-2-(methylamino)cyclohexanone], for which the “antidepressant effects compared with esketamine” value in data set [1] is “greater potency and longer-lasting antidepressant effects”.

On to `CN[C@]1(c2ccccc2Cl)CCCCC1=O` [esketamine, (2S)-2-(2-Chlorophenyl)-2-(methylamino)cyclohexanone], for which, in data set [2] (0.3 mg/kg iv), the “Dizziness, related TEAE, subjects” value is reported as 6%; the “Euphoric mood, related TEAE, subjects” value turned out to be 19%; the “Fatigue, related TEAE, subjects” value was determined as 6%; the “Feeling abnormal, related TEAE, subjects” value turned out to be 13%. Also, in data set [2] (0.3 mg/kg iv), the “Headache, related TEAE, subjects” value worked out at 19%; the “Hypokinesia, related TEAE, subjects” value amounted to 6%; the “Inappropriate affect, related TEAE, subjects” value (“Inappropriate affect” for short) is reported as 6%; the “Nausea, related TEAE, subjects” value is given as 6%. Also, in data set [2] (20 mg oral solution), the “Feeling abnormal, related TEAE, subjects” value is 19%; the “Headache, related TEAE, subjects” value amounted to 19%; the “Inappropriate affect” value is recorded as 6%. In data set [2] (20 mg oral tablet), the “Dizziness, related TEAE, subjects” value amounted to 13%; the “Fatigue, related TEAE, subjects” value amounted to 7%; the “Feeling abnormal, related TEAE, subjects” value worked out at 7%; the “Hyperhidrosis, related TEAE, subjects” value was determined as 7%. Also, in data set [2] (100 mg oral tablet), the “Dizziness, related TEAE, subjects” value turned out to be 13%; the “Euphoric mood, related TEAE, subjects” value is given as 13%; the “Feeling abnormal, related TEAE, subjects” value is given as 20%; the “Headache, related TEAE, subjects” value stood at 13%. Also, in data set [2] (100 mg oral tablet), the “Hyperhidrosis, related TEAE, subjects” value amounted to 7%; the “Hypokinesia, related TEAE, subjects” value turned out to be 13%; the “Inappropriate affect” value stood at 7%; the “Nausea, related TEAE, subjects” value was found to be 20%. In addition, the “AE leading to withdrawal from the study” value in data set [2] (one subject (Subject 11) of 16, after first treatment period) was “mild hyperbilirubinemia”. For the same compound, in data set [3], the “cytotoxicity (≥45% reduction in mitotic index relative to the vehicle control)” value is recorded as “not observed”. The “DNA strand breaks in the liver” value in data set [4] was “evidence of causing an increase in DNA strand breaks”. The “antidepressant-like effect of continuous 7-day treatment vs single acute dose at the same dose levels” value in data set [5] was “stronger antidepressant-like effect”.
